Assay results as given in DBAASP.
≈ marks a conversion by molar mass, not a printed value. Values belong to the compound of their own block, whether it stands above or below them.

Tests used:
Assay in all cases: ≥ marks a high value that may be exact or a test limit, other limits are often not marked, values filed in µg/mL are converted to µM
[1] = test system: Staphylococcus aureus ATCC 43300
[2] = test system: Pseudomonas aeruginosa ATCC 27853
[3] = test system: Candida albicans F7-39/IDE99
Staphylococcus aureus = test system: Staphylococcus aureus
Staphylococcus aureus 1 = test system: Staphylococcus aureus 1
[4] = test system: Staphylococcus epidermidis
Pseudomonas aeruginosa = test system: Pseudomonas aeruginosa
[5] = test system: Micrococcus luteus CCM 144
Escherichia coli B = test system: Escherichia coli B
Bacillus subtilis 168 = test system: Bacillus subtilis 168
[6] = test system: Fusarium graminearum PH-1
[7] = test system: Fusarium oxysporum f.sp. vasinfectum
[8] = test system: Pectobacterium carotovorum
[9] = test system: Bacillus subtilis ATCC 23857
[10] = test system: Xanthomonas campestris pv. citri
[11] = test system: Candida albicans ATCC 90028
Fusarium oxysporum = test system: Fusarium oxysporum
[12] = test system: Escherichia coli ATCC 25922
Fusarium solani = test system: Fusarium solani
[13] = test system: Pseudomonas syringae pv. tabaci
[14] = test system: Staphylococcus aureus ATCC 25923
Ramulariopsis gossypii = test system: Ramulariopsis gossypii
[15] = test system: Cryptococcus neoformans ATCC 28957
[16] = test system: Bacillus cereus ATCC 14579
Trichoderma asperellum = test system: Trichoderma asperellum
[17] = test system: Enterococcus faecium mic80
[18] = test system: Pseudomonas aeruginosa LES400
[19] = test system: Pseudomonas aeruginosa H103
[20] = test system: Escherichia coli ESBL 63103
[21] = test system: Staphylococcus aureus C623
[22] = test system: Pseudomonas aeruginosa 213
Candida albicans C627 = test system: Candida albicans C627
[23] = test system: Klebsiella pneumoniae ATCC 700603
[24] = test system: Staphylococcus epidermidis ATCC 12228
[25] = test system: Escherichia coli ATCC 25322
Escherichia coli = test system: Escherichia coli
[26] = test system: Stenotrophomonas maltophilia
Micrococcus luteus = test system: Micrococcus luteus
[27] = test system: Escherichia coli DH5alpha
Acinetobacter baumannii = test system: Acinetobacter baumannii
Bacillus subtilis = test system: Bacillus subtilis
[28] = test system: Corynebacterium glutamicum ATCC 13032
Proteus vulgaris = test system: Proteus vulgaris
Salmonella typhimurium = test system: Salmonella typhimurium
Streptococcus pyogenes = test system: Streptococcus pyogenes

Compound: CC[C@H](C)[C@H](NC(=O)[C@H](CCCCN)NC(=O)[C@H](CCCCN)NC(=O)[C@H](CC(C)C)NC(=O)[C@H](CCCCN)NC(=O)[C@H](CCCCN)NC(=O)[C@H](Cc1c[nH]c2ccccc12)NC(=O)[C@H](CC(C)C)NC(=O)[C@H](CO)NC(=O)[C@H](CO)NC(=O)[C@H](CC(C)C)NC(=O)[C@H](CCCCN)NC(=O)CN)C(=O)N[C@H](C(=O)N[C@@H](C)C(=O)N[C@@H](CCCCN)C(N)=O)[C@@H](C)CC [GKLSSLWKKLKKIIAK]
MIC [1]: 26 µM (≈ 47.8 µg/mL)
MIC [2]: 6.8 µM (≈ 12.5 µg/mL)
MIC [3]: ≥ 34 µM
MIC (Staphylococcus aureus): 27 µM (≈ 49.7 µg/mL)
MIC (Staphylococcus aureus 1): 11 µM (≈ 20.2 µg/mL)
MIC [4]: 2.5 µM (≈ 4.6 µg/mL)
MIC (Pseudomonas aeruginosa): 19 µM (≈ 35 µg/mL)
MIC [5]: 3 µM (≈ 5.52 µg/mL)
MIC (Escherichia coli B): 20 µM (≈ 36.8 µg/mL)
MIC (Bacillus subtilis 168): 7 µM (≈ 12.9 µg/mL)

Compound: CSCC[C@H](NC(=O)[C@H](Cc1ccccc1)NC(=O)CNC(=O)[C@H](Cc1cnc[nH]1)NC(=O)[C@H](CC(C)C)NC(=O)[C@H](CO)NC(=O)CN)C(=O)N[C@@H](Cc1ccc(O)cc1)C(=O)N[C@@H](CCCN=C(N)N)C(=O)N[C@@H](Cc1ccc(O)cc1)C(=O)N[C@@H](CC(C)C)C(=O)N[C@@H](CCCCN)C(=O)N[C@@H](CC(N)=O)C(=O)N[C@@H](CCSC)C(=O)N[C@H](C(=O)N[C@@H](CC(C)C)C(=O)N[C@@H](CC(N)=O)C(=O)N[C@@H](CC(C)C)C(=O)N[C@@H](Cc1ccccc1)C(N)=O)C(C)C [GSLHGFMYRYLKNMVLNLF]
MIC [7]: 8 µM (≈ 18.4 µg/mL)
MIC [8]: ≥ 128 µM
MIC [2]: 32 µM (≈ 73.7 µg/mL)
MIC [9]: 8 µM (≈ 18.4 µg/mL)
MIC [10]: ≥ 64 µM
MIC [11]: 2.67 µM (≈ 6.15 µg/mL)
MIC (Fusarium oxysporum): ≥ 32 µM
MIC [12]: 32 µM (≈ 73.7 µg/mL)
MIC (Fusarium solani): 16 µM (≈ 36.8 µg/mL)
MIC [13]: 16 µM (≈ 36.8 µg/mL)
MIC [14]: 4 µM (≈ 9.21 µg/mL)
MIC (Ramulariopsis gossypii): 4 µM (≈ 9.21 µg/mL)
MIC [15]: 8 µM (≈ 18.4 µg/mL)
MIC [16]: ≥ 64 µM
MIC (Trichoderma asperellum): ≥ 32 µM

Compound: CC(C)C[C@H](NC(=O)[C@H](C)NC(=O)[C@H](CO)NC(=O)[C@H](CCCCN)NC(=O)[C@H](CC(C)C)NC(=O)[C@H](CC(C)C)NC(=O)[C@@H](N)CC(N)=O)C(=O)N[C@@H](CCCCN)C(=O)N[C@H](C(=O)N[C@H](C(=O)N[C@@H](CC(N)=O)C(=O)N[C@@H](CCCCN)C(=O)N[C@@H](CC(C)C)C(=O)N[C@@H](CC(C)C)C(=O)N[C@@H](C)C(=O)N[C@@H](C)C(=O)N[C@@H](CO)C(N)=O)C(C)C)[C@@H](C)O [NLLKSALKTVNKLLAAS]
MIC [2]: 64 µM (≈ 114 µg/mL)
MIC [23]: 64 µM (≈ 114 µg/mL)
MIC [14]: 128 µM (≈ 228 µg/mL)
MIC [24]: 64 µM (≈ 114 µg/mL)
MIC [25]: ≥ 32 µM

Compound: CC(C)C[C@H](NC(=O)CNC(=O)[C@H](CC(N)=O)NC(=O)[C@@H](NC(=O)[C@@H](NC(=O)CNC(=O)[C@H](CC(C)C)NC(=O)[C@H](C)NC(=O)[C@H](CC(=O)O)NC(=O)[C@H](CC(N)=O)NC(=O)[C@H](CC(C)C)NC(=O)[C@H](CC(C)C)NC(=O)[C@@H](N)CC(N)=O)[C@@H](C)O)C(C)C)C(=O)N[C@@H](CC(C)C)C(=O)NCC(=O)N[C@@H](CCCN=C(N)N)C(=O)N[C@@H](CO)C(=O)O [NLLNDALGTVNGLLGRS]
MIC [14]: 32 µM (≈ 55.3 µg/mL)
MIC [25]: ≥ 64 µM

Compound: CC(=O)N[C@@H](CCCN=C(N)N)C(=O)N[C@@H](Cc1c[nH]c2ccccc12)C(=O)N[C@H](C(=O)N[C@@H](Cc1c[nH]c2ccccc12)C(=O)N[C@@H](CCCN=C(N)N)C(=O)NCC(=O)N[C@@H](CO)C(=O)NCC(=O)N[C@@H](CCCN=C(N)N)C(=O)N[C@@H](Cc1c[nH]c2ccccc12)C(=O)N[C@H](C(=O)N[C@@H](Cc1c[nH]c2ccccc12)C(=O)N[C@@H](CCCN=C(N)N)C(N)=O)[C@@H](C)O)[C@@H](C)O [RWTWRGSGRWTWR]
MIC (Escherichia coli): 8.93 µM (≈ 16.4 µg/mL)
MIC (Staphylococcus aureus): 4.47 µM (≈ 8.18 µg/mL)
MIC [26]: ≥ 279 µM
MIC (Micrococcus luteus): 8.93 µM (≈ 16.4 µg/mL)
MIC [27]: 25 µM (≈ 45.8 µg/mL)
MIC (Acinetobacter baumannii): 17.9 µM (≈ 32.7 µg/mL)
MIC (Bacillus subtilis): 8.93 µM (≈ 16.4 µg/mL)
MIC (Pseudomonas aeruginosa): 69.8 µM (≈ 128 µg/mL)
MIC [28]: 0.794 µM (≈ 1.45 µg/mL)

Continued, values first:

MIC [6]: ≥ 48 µM
Compound: NCC(=O)N1CCC[C@H]1C(=O)N[C@H]1CSSC[C@@H](C(=O)O)NC(=O)CNC(=O)[C@H](CO)NC(=O)[C@H](Cc2ccccc2)NC1=O [GPCFSGC]

MIC [17]: 22.1 µM (≈ 32 µg/mL)
MIC [18]: ≥ 88.6 µM
MIC [19]: ≥ 88.6 µM
MIC [20]: 22.1 µM (≈ 32 µg/mL)
MIC [14]: 22.1 µM (≈ 32 µg/mL)
MIC [21]: 22.1 µM (≈ 32 µg/mL)
MIC [22]: ≥ 88.6 µM
MIC (Candida albicans C627): 5.54 µM (≈ 8 µg/mL)
Compound: CC[C@H](C)[C@H](N)C(=O)N[C@@H](CCCCN)C(=O)N[C@@H](Cc1c[nH]c2ccccc12)C(=O)N[C@@H](CCCCN)C(=O)N[C@@H](CCCN=C(N)N)C(=O)N[C@@H](Cc1c[nH]c2ccccc12)C(=O)N[C@@H](Cc1c[nH]c2ccccc12)C(=O)N[C@@H](Cc1c[nH]c2ccccc12)C(=O)N[C@@H](CCCN=C(N)N)C(=O)O [IKWKRWWWR]

MIC [6]: ≥ 96 µM
Compound: C[C@H](NC(=O)[C@H](Cc1ccccc1)NC(=O)CNC(=O)[C@@H](N)CCCN=C(N)N)C(=O)N[C@@H](CCCN=C(N)N)C(=O)N[C@@H](CCCN=C(N)N)C(=O)O [RGFARR]

MIC (Proteus vulgaris): ≥ 64 µM
MIC (Escherichia coli): 64 µM (≈ 94.1 µg/mL)
MIC (Salmonella typhimurium): 0.5 µM (≈ 0.735 µg/mL)
MIC (Streptococcus pyogenes): ≥ 64 µM
MIC [4]: ≥ 64 µM
MIC (Bacillus subtilis): ≥ 64 µM
MIC (Pseudomonas aeruginosa): 64 µM (≈ 94.1 µg/mL)
Compound: CC[C@H](C)[C@H](NC(=O)[C@@H](N)Cc1ccc(O)cc1)C(=O)N1CCC[C@H]1C(=O)N[C@@H](CCC(N)=O)C(=O)N1CCC[C@H]1C(=O)N[C@@H](CCCN=C(N)N)C(=O)N1CCC[C@H]1C(=O)N1CCC[C@H]1C(=O)N[C@@H](Cc1cnc[nH]1)C(=O)N1CCC[C@H]1C(=O)N[C@@H](CCCN=C(N)N)C(=O)N[C@@H](CC(C)C)C(=O)O [YIPQPRPPHPRL]
